Tests used:
Format in all cases: in vivo
Details in all cases: 250 g/ha, evaluated after 13 days
[1] = tested on: Amaranthus retoflexus (AMARE); assay: Post-emergence Test, glasshouse, AMARE
Method: (§1) Seeds of a variety of test species are sown in standard soil in pots Amaranthus retoflexus (AMARE), Echinochloa crus-galli (ECHCG), Setaria faberi (SETFA)). After cultivation for one day (pre-emergence) or after 8 days cultivation (post-emergence) under controlled conditions in a glasshouse (at 24/16° C., day/night; 14 hours light; 65% humidity), the plants are sprayed with an aqueous spray solution derived from the formulation of the technical active ingredient in acetone/water (50:50) solution containing 0.5% Tween™ 20 (polyoxyethelyene sorbitan monolaurate, CAS RN 9005-64-5). Compounds are applied at 250 g/ha unless otherwise stated. The test plants are then grown in a glasshouse under controlled conditions in a glasshouse (at 24/16° C., day/night; 14 hours light; 65% humidity) and watered twice daily. After 13 days for pre- and post-emergence, the test is evaluated for the percentage damage caused to the plant. The biological activities are shown in the following table on a five-point scale (5=81-100%; 4=61-80%; 3=41-60%; 2=21-40%; 1=0-20%).

ABUTH [2] = assay: Post-emergence Test, glasshouse, ABUTH
Method: as §1

Setaria faberi (SETFA) [3] = assay: Post-emergence Test, glasshouse, SETFA
Method: as §1

[4] = tested on: Echinochloa crus-galli (ECHCG); assay: Post-emergence Test, glasshouse, ECHCG
Method: as §1

IPOHE [5] = assay: Post-emergence Test, glasshouse, IPOHE
Method: as §1

[6] = tested on: Amaranthus retoflexus (AMARE); assay: Pre-emergence Test, glasshouse, AMARE
Method: as §1

ABUTH [7] = assay: Pre-emergence Test, glasshouse, ABUTH
Method: as §1

Setaria faberi (SETFA) [8] = assay: Pre-emergence Test, glasshouse, SETFA
Method: as §1

[9] = tested on: Echinochloa crus-galli (ECHCG); assay: Pre-emergence Test, glasshouse, ECHCG
Method: as §1

IPOHE [10] = assay: Pre-emergence Test, glasshouse, IPOHE
Method: as §1

Structure (SMILES)	percentage damage caused to the plant, five-point scale, AMARE [1]	percentage damage caused to the plant, five-point scale, ABUTH (ABUTH [2])	percentage damage caused to the plant, five-point scale, SETFA (Setaria faberi (SETFA) [3])	percentage damage caused to the plant, five-point scale, ECHCG [4]	percentage damage caused to the plant, five-point scale, IPOHE (IPOHE [5])	percentage damage caused to the plant, five-point scale, AMARE [6]	percentage damage caused to the plant, five-point scale, ABUTH (ABUTH [7])	percentage damage caused to the plant, five-point scale, SETFA (Setaria faberi (SETFA) [8])	percentage damage caused to the plant, five-point scale, ECHCG [9]	percentage damage caused to the plant, five-point scale, IPOHE (IPOHE [10])
CCCCCCn1nc(Cl)c2cccc(Oc3ncc(Cl)cn3)c21 [Compound 1.058]	4 (4=61-80%)	3 (3=41-60%)	2 (2=21-40%)	3 (3=41-60%)	2 (2=21-40%)	2 (2=21-40%)	2 (2=21-40%)	3 (3=41-60%)	3 (3=41-60%)	1 (1=0-20%)
N#Cc1nn(CCCC(F)(F)F)c2c(Oc3ncc(Cl)cn3)cccc12 [Compound 1.007, 7-(5-chloropyrimidin-2-yl)oxy-1-(4,4,4-trifluorobutyl)indazole-3-carbonitrile]	5 (5=81-100%)	5 (5=81-100%)	5 (5=81-100%)	5 (5=81-100%)	4 (4=61-80%)	5 (5=81-100%)	3 (3=41-60%)	5 (5=81-100%)	5 (5=81-100%)	2 (2=21-40%)
N#Cc1ccc2c(Cl)nn(CCCC(F)(F)F)c2c1Oc1ncc(Cl)cn1 [Compound 1.041, 3-chloro-7-(5-chloropyrimidin-2-yl)oxy-1-(4,4,4-trifluorobutyl)indazole-6-carbonitrile]	1 (1=0-20%)	1 (1=0-20%)	1 (1=0-20%)	1 (1=0-20%)	1 (1=0-20%)	1 (1=0-20%)	1 (1=0-20%)	1 (1=0-20%)	1 (1=0-20%)	1 (1=0-20%)
COc1cnc(Oc2cccc3c(Cl)nn(CCCC(F)(F)F)c23)nc1 [Compound 1.048]	5 (5=81-100%)	4 (4=61-80%)	3 (3=41-60%)	3 (3=41-60%)	4 (4=61-80%)	4 (4=61-80%)	2 (2=21-40%)	5 (5=81-100%)	4 (4=61-80%)	1 (1=0-20%)
Cc1ccc2cnn(CCCC(F)(F)F)c2c1Oc1ncc(Cl)cn1 [Compound 1.044]	1 (1=0-20%)	1 (1=0-20%)	1 (1=0-20%)	1 (1=0-20%)	1 (1=0-20%)	2 (2=21-40%)	1 (1=0-20%)	3 (3=41-60%)	3 (3=41-60%)	1 (1=0-20%)
FC(F)(F)CCCn1ccc2cccc(Oc3ncc(Cl)cn3)c21 [Compound 1.003]	3 (3=41-60%)	2 (2=21-40%)	1 (1=0-20%)	1 (1=0-20%)	2 (2=21-40%)	1 (1=0-20%)	1 (1=0-20%)	1 (1=0-20%)	1 (1=0-20%)	1 (1=0-20%)
N#Cc1ccc2cnn(CCCC(F)(F)F)c2c1Oc1ncc(Cl)cn1 [Compound 1.046]	2 (2=21-40%)	2 (2=21-40%)	1 (1=0-20%)	1 (1=0-20%)	1 (1=0-20%)	1 (1=0-20%)	2 (2=21-40%)	1 (1=0-20%)	1 (1=0-20%)	1 (1=0-20%)
FC(F)(F)CCCn1nc(Cl)c2ccc(Br)c(Oc3ncc(Cl)cn3)c21 [Compound 1.037]	2 (2=21-40%)	1 (1=0-20%)	1 (1=0-20%)	1 (1=0-20%)	1 (1=0-20%)	1 (1=0-20%)	1 (1=0-20%)	1 (1=0-20%)	1 (1=0-20%)	1 (1=0-20%)
FCCn1nc(Cl)c2cccc(Oc3ncc(Cl)cn3)c21 [Compound 1.062]	3 (3=41-60%)	2 (2=21-40%)	1 (1=0-20%)	1 (1=0-20%)	1 (1=0-20%)	4 (4=61-80%)	1 (1=0-20%)	4 (4=61-80%)	2 (2=21-40%)	1 (1=0-20%)
CCCn1nc(Cl)c2cccc(Oc3ncc(Cl)cn3)c21 [Compound 1.061]	4 (4=61-80%)	2 (2=21-40%)	2 (2=21-40%)	2 (2=21-40%)	2 (2=21-40%)	3 (3=41-60%)	1 (1=0-20%)	5 (5=81-100%)	4 (4=61-80%)	1 (1=0-20%)
FC(F)(F)CCCn1ncc2cccc(Oc3ncc(Cl)cn3)c21 [Compound 1.001, 7-(5-chloropyrimidin-2-yl)oxy-1-(4,4,4-trifluorobutyl)indazole]	2 (2=21-40%)	4 (4=61-80%)	4 (4=61-80%)	3 (3=41-60%)	1 (1=0-20%)	4 (4=61-80%)	4 (4=61-80%)	5 (5=81-100%)	5 (5=81-100%)	1 (1=0-20%)
FC(F)OCCn1nc(Cl)c2cccc(Oc3ncc(Cl)cn3)c21 [Compound 1.051]	5 (5=81-100%)	4 (4=61-80%)	4 (4=61-80%)	4 (4=61-80%)	3 (3=41-60%)	5 (5=81-100%)	3 (3=41-60%)	5 (5=81-100%)	4 (4=61-80%)	2 (2=21-40%)
